Results: PubChem BioAssay (NCI)
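1) Cells in 96-well plates. 2) Compound, 48 h, 5 concentrations. 3) Linear interpolation between surrounding doses. 4) Unreached endpoint = highest concentration. TGI: concentration producing complete growth inhibition.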

Columns and labels:
Assay in all cases: NCI-60 cell line screen, 48 h
[1] = system: MCF7 breast
[2] = system: DU-145 prostate
[3] = system: SK-OV-3 ovarian
[4] = system: MDA-MB-231 breast
[5] = system: UACC-62 melanoma
[6] = system: SNB-19 CNS
[7] = system: HL-60(TB) leukemia
[8] = system: 786-0 renal
[9] = system: UO-31 renal
[10] = system: SK-MEL-28 melanoma
[11] = system: EKVX NSCLC
[12] = system: MOLT-4 leukemia
[13] = system: NCI-H226 lung
[14] = system: COLO 205 colon
[15] = system: T-47D breast
[16] = system: HT29 colon
[17] = system: SK-MEL-5 melanoma
[18] = system: UACC-257 melanoma
[19] = system: OVCAR-3 ovarian
[20] = system: ACHN renal
[21] = system: A549 NSCLC
[22] = system: MDA-MB-435
[23] = system: M14 melanoma
[24] = system: OVCAR-5 ovarian
[25] = system: A498 renal
[26] = system: NCI/ADR-RES ovarian
[27] = system: SW-620 colon
[28] = system: SF-295 CNS
[29] = system: BT-549 breast
[30] = system: U251 CNS
[31] = system: SF-268 CNS
[32] = system: OVCAR-8 ovarian
[33] = system: NCI-H460 lung
[34] = system: RPMI-8226 leukemia
[35] = system: HCT-116 colon
[36] = system: NCI-H23 lung
[37] = system: HOP-92 NSCLC
[38] = system: HS 578T breast
[39] = system: SF-539 CNS
[40] = system: TK-10 renal
[41] = system: SK-MEL-2 melanoma
[42] = system: SN12C renal
[43] = system: HCT-15 colon
[44] = system: LOX IMVI melanoma
[45] = system: CAKI-1 renal
[46] = system: HOP-62 NSCLC
[47] = system: KM12 colon
[48] = system: K-562 leukemia
[49] = system: PC-3 prostate
[50] = system: CCRF-CEM leukemia
[51] = system: SR leukemia
[52] = system: MDA-N
[53] = system: SNB-75 CNS
[54] = system: IGROV1 ovarian
[55] = system: NCI-H522 lung
[56] = system: OVCAR-4 ovarian
[57] = system: MALME-3M melanoma

CCOC(=O)/C(C#N)=N\Nc1ccc(-n2c(C)nc3ccc(Br)cc3c2=O)cc1
TGI [1]: > 100 µM | TGI [2]: > 100 µM | TGI [3]: > 100 µM | TGI [4]: > 100 µM | TGI [5]: > 100 µM | TGI [6]: > 100 µM | TGI [7]: > 100 µM | TGI [8]: > 100 µM | TGI [9]: > 100 µM | TGI [10]: > 100 µM | TGI [11]: > 100 µM | TGI [12]: > 100 µM | TGI [13]: > 100 µM | TGI [14]: > 100 µM | TGI [15]: > 100 µM | TGI [16]: > 100 µM | TGI [17]: > 100 µM | TGI [18]: > 100 µM | TGI [19]: > 100 µM | TGI [20]: > 100 µM | TGI [21]: > 100 µM | TGI [22]: > 100 µM | TGI [23]: > 100 µM | TGI [24]: > 100 µM | TGI [25]: > 100 µM | TGI [26]: > 100 µM | TGI [27]: > 100 µM | TGI [28]: > 100 µM | TGI [29]: > 100 µM | TGI [30]: > 100 µM | TGI [31]: > 100 µM | TGI [32]: > 100 µM | TGI [33]: > 100 µM | TGI [34]: > 100 µM | TGI [35]: > 100 µM | TGI [36]: > 100 µM | TGI [37]: > 100 µM | TGI [38]: > 100 µM | TGI [39]: > 100 µM | TGI [40]: > 100 µM | TGI [41]: > 100 µM | TGI [42]: > 100 µM | TGI [43]: > 100 µM | TGI [44]: > 100 µM | TGI [45]: > 100 µM | TGI [46]: > 100 µM | TGI [47]: > 100 µM | TGI [48]: > 100 µM | TGI [49]: > 100 µM | TGI [50]: > 100 µM | TGI [51]: > 100 µM | TGI [52]: > 100 µM | TGI [53]: > 100 µM | TGI [54]: > 100 µM

CC(C)=CCc1c(O)c(CC=C(C)C)c2oc3c(c(=O)c2c1O)C(C=C(C)C)Oc1cc(O)ccc1-3 (stereo unspecified)
TGI [1]: 17.5 µM | TGI [55]: 15.2 µM | TGI [2]: 24.3 µM | TGI [3]: 29 µM | TGI [4]: 25.6 µM | TGI [5]: 18 µM | TGI [6]: 24.2 µM | TGI [7]: 29.8 µM | TGI [8]: 19.5 µM | TGI [9]: 15.7 µM | TGI [10]: 21.5 µM | TGI [11]: 14.5 µM | TGI [12]: 16.6 µM | TGI [13]: 49.8 µM | TGI [14]: 30.3 µM | TGI [15]: 15.4 µM | TGI [16]: 23.1 µM | TGI [17]: 21.5 µM | TGI [18]: 26.9 µM | TGI [19]: 14.8 µM | TGI [20]: 15.4 µM | TGI [21]: 20.6 µM | TGI [22]: 13.7 µM | TGI [23]: 21 µM | TGI [24]: 33.1 µM | TGI [25]: 29.8 µM | TGI [26]: 38.4 µM | TGI [27]: 18.1 µM | TGI [28]: 19.2 µM | TGI [29]: 25 µM | TGI [30]: 16.7 µM | TGI [31]: 28 µM | TGI [56]: 23.3 µM | TGI [57]: 37 µM | TGI [32]: 24.4 µM | TGI [33]: 17 µM | TGI [34]: 20.6 µM | TGI [35]: 13.2 µM | TGI [36]: 16.2 µM | TGI [37]: 28.3 µM | TGI [38]: 43.8 µM | TGI [39]: 25.5 µM | TGI [40]: 13.3 µM | TGI [41]: 7.93 µM | TGI [42]: 18.2 µM | TGI [43]: 19.1 µM | TGI [44]: 16 µM | TGI [45]: 19.4 µM | TGI [46]: 31 µM | TGI [47]: 11.6 µM | TGI [48]: 16.6 µM | TGI [49]: 14.4 µM | TGI [50]: 7.68 µM | TGI [51]: 8.29 µM | TGI [52]: 12.1 µM | TGI [53]: 14.1 µM | TGI [54]: 20.2 µM
